According to patent US12209142B2, “SARS-CoV-2 epitope-targeted peptide immunostimulants” (Institute for Systems Biology, priority 2020, dated 2025):
Entries after “also recorded” stand apart in the source; their conditions may differ. Where a SMILES comes first, the peptide text is derived from it. Bridges are numbered along the chain shown (N, C = ends). Triazole bridges read from a SMILES are 1,4-linked. [ ]: non-standard residue; d: D form. The star is where a group is joined. Biotin = O=C1N[C@H]2[C@H](CS[C@H]2CCCCC(=O)*)N1; Lys(N3) = [N-]=[N+]=NCCCC[C@H](N)C(=O)O; PEG5 = NCCOCCOCCOCCOCCOCCC(=O)O; Pra = C#CC[C@H](N)C(=O)O

Experiments:
[1] = test system: K. pneumoniae cells (strain BAA 1705); test: Gentamicin protection assay: phagocytosis and opsonophagocytic killing (OPK) by macrophages; type: cell-based, Klebsiella pneumoniae
Protocol: FIGS. 7A and 7B show a gentamicin protection assay that evaluates EPI-driven phagocytosis and opsonophagocytic killing (OPK) of K. pneumoniae cells by murine bone-marrow-derived macrophages. FIG. 7A is a flow diagram depicting the assay used to evaluate EPI-driven opsonophagocytic killing (OPK) of K. pneumoniae cells. Briefly, K. pneumoniae cells (strain BAA 1705) opsonized by EPIs (AR-PCCs) and anti-DNP antibodies were incubated with macrophages for 1 or 24 h. Macrophages were lysed, and the lysate was plated to obtain bacterial colonies that were subsequently counted. FIG. 7B is a plot of colony counts for various samples subjected to the OPK assay. […] All EPIs (AR-PCCs) were used at a 5 μM concentration, measurements were conducted in triplicate, and error bars reflect standard deviations. cy(LLFFA) is SEQ ID NO:11.
It also tested whether DNP-conjugated EPIs could promote the opsonophagocytic killing (OPK) of K. pneumoniae by macrophages. This was tested by using an OPK assay. Briefly, K. pneumoniae cells were treated with EPI and then anti-DNP antibody before being exposed to macrophages for either 6 or 24 hours. During this incubation period, macrophages that recognize K. pneumoniae cells will phagocytose them, and phagocytosed bacteria will remain viable for up to 6 hours, but within 24 hours are rendered inviable by OPK. Thus, macrophages were isolated after 6 and 24 hours of incubation with K. pneumoniae, lysed them, and plated and grew the lysate, which yielded bacterial colonies that reflect the phagocytosis (at 6 hrs) or OPK (at 24 hrs) of bacteria.
Given that cy(LLFFF)-DNP (SEQ ID NO:5) recruits antibodies to K. pneumoniae surfaces, it was expected that K. pneumoniae opsonized in this manner would be more susceptible to phagocytosis by macrophages. AR-PCC-driven phagocytosis and OPK were quantified by a gentamicin protection assay, as depicted in FIG. 7A. For this assay, K. pneumoniae cells (strain BAA 1705) were treated with cy(LLFFF)-DNP (SEQ ID NO:5), opsonized by anti-DNP antibodies, and then incubated with murine bone-marrow-derived macrophages (BMDMs). BMDMs were subsequently exposed to a solution containing gentamicin, to which K. pneumoniae strain BAA 1705 is susceptible, to kill any extracellular bacteria. Phagocytosed bacteria remain viable inside BMDMs for at least 1 h, yet are rendered inviable after 24 h by OPK (FIG. 13). Macrophages harvested at 1 h and 24 h were lysed and plated to generate bacterial colonies, which were enumerated to quantify phagocytosis and OPK.
Opsonophagocytic killing (OPK) assays. Klebsiella pneumoniae BAA1705 was treated with DNP-PCCs followed by incubation with anti-DNP antibody, as described above in the “Cell-Based ELISAs” section. These opsonized bacteria were then used to infect BMDMs at a multiplicity of infection of 50 for 0.5 h at 37° C. Bacteria were then washed by using RPMI 1640 Media and BMDMs were left in cell culture medium containing gentamicin (100 μg/ml). After 1 h and 24 h BMDMs were washed to remove gentamicin and intracellular bacteria were harvested by lysing BMDMs in RPMI media containing 0.2% Triton X 100. Bacterial CFUs were enumerated by plating onto LB agar. Bacterial counts at 1 h indicated the degree of opsonization while those at 24 h served as a measure of microbicidal activity of macrophages. For these measurements, anti-MrkA antibody and K. pneumoniae antiserum were used at dilutions of 5 μg/mL each.

[2] = test system: MrkA-expressing K. pneumoniae cells; test: Whole-cell ELISA of biotinylated PCC binding
[3] = strain BAA 1705, PCC 5 μM or lower

## CC(C)C[C@@H]1NC(=O)[C@@H](NC(=O)CCOCCOCCOCCOCCOCCNC(=O)CCCC[C@@H]2SC[C@@H]3NC(=O)N[C@@H]32)Cc2cn(nn2)CCCC[C@@H](C(N)=O)NC(=O)[C@H](Cc2ccccc2)NC(=O)[C@H](Cc2ccccc2)NC(=O)[C@H](Cc2ccccc2)NC(=O)[C@H](CC(C)C)NC1=O [cy(LLFFF)] ({Biotin-PEG5}-[Pra]LLFFF[Lys(N3)]-NH2; triazole 1-7; N-terminus and C-terminus assumed)
[1]; macrophages harvested at 6 hrs
  CFU at 6 hrs, DNP-conjugated EPI and anti-DNP antibody: more than 80,000 CFU
  cell counts at 6 hrs, DNP-conjugated EPI without antibody: ~35,000
[1]; macrophages harvested at 24 h
  colony counts at 24 h (OPK): little to no cell counts
[2]; MrkA/B/C knockout KPPR1
  whole-cell ELISA signal, MrkA-knockout KPPR1: ELISA intensities comparable to baseline
[2]; biotinylated PCC at 5 μM
  whole-cell ELISA signal, K. pneumoniae BAA 1705 and BAA 2146: high absorbance; also recorded: strong signal; also recorded: binds two strains of MrkA-expressing K. pneumoniae cells with excellent selectivity versus E. coli and S. typhimurium
[2]; strain BAA 1705, 50 μM PCC
  whole-cell ELISA signal at high PCC concentration, LB or G-CAA: strong and comparable ELISA signals
[2]; [3]
  whole-cell ELISA 450 nm absorbance, cells cultured in G-CAA (high MrkA): strong absorbances
  whole-cell ELISA 450 nm absorbance, cells cultured in LB (low MrkA): near-baseline absorbances
[2]; wild type KPPR1 (ATCC 43816), G-CAA media, 5 μM down to 5 nM
  whole-cell ELISA signal, wild type KPPR1: strong signals; also recorded: binds wild type MrkA-expressing KPPR1 cells
